The test system of one data set is P388 leukemia. Description: in vivo ip P388 lymphocytic leukemia model. Details: species or system B6D2F1 mice. The conditions noted are these: maximum increase in lifespan, mice bearing ip P388 leukemia; slashes = separate experiments; ip Days 1 through 5; active if ≥25 percent. The method, then: This tumor system is widely accepted as an antitumor agent screening tool because it is sensitive to virtually all of the clinically active antineoplastic agents; quantitative and reproducible; amenable for large-scale screening; and predictive for activity in other animal tumor models.
10^6 P388 leukemia cells are inoculated ip in B6D2F1 mice. Twenty-four hours later, if the tumor inoculum proves to be free of bacterial contamination (as determined by 24 hours incubation in thioglycollate broth), animals are randomized into groups of 6 and housed in shoebox cages. The compound to be evaluated is dissolved in a minimal volume of either N,N-dimethylacetamide (DMA) or 95% ethanol (depending upon solubility). An equal volume of saline is added; if the drug comes out of solution an equal volume of polyethoxylated castor oil is added and then saline qs to a concentration such that the desired dose is delivered in 0.5 ml. The final concentration of DMA, ethanol and polyethoxylated castor oil is […]. Dilutions for lower doses are made with saline so there is a decreasing proportion of organic solvents in the vehicle with decreasing dosage. […] Fomulations are prepared immediately prior to injection. The compound is administered ip on Days 1 through 5 (i.e. treatment is initiated 24 hrs after tumor inoculation). Each experiment includes three groups of 6 animals as untreated controls and animals treated with a positive control, cisplatin, at two dose levels. Animals are weighed as a group on Days 1, 5 and 9 and average weight change (Δwt.) is used as a reflection of toxicity. Each experiment also includes an inoculum titration--groups of 8 mice inoculated ip with 10^5 to […] P388 leukemia cells. The titration is used to calculate cell kill achieved by treatment with drugs. Animals are monitored daily for mortality and experiments are terminated after 45 days. The endpoint is median survival time (MST) and increase in lifespan (ILS) which is the percentage of increase in MST relative to untreated controls.

Data set [1] can be described thus: maximally tolerated dose in mice, ip, P388 regimen (Table A). It counts as in vivo, mouse. The conditions noted are these: mouse, in vivo, ip; maximally tolerated dose for B6D2F female mice, ipqDxs regimen (Days 1 through 5). On the procedure:
(§1) 10^6 P388 leukemia cells are inoculated ip in B6D2F1 mice. Twenty-four hours later, if the tumor inoculum proves to be free of bacterial contamination (as determined by 24 hours incubation in thioglycollate broth), animals are randomized into groups of 6 and housed in shoebox cages. The compound to be evaluated is dissolved in a minimal volume of either N,N-dimethylacetamide (DMA) or 95% ethanol (depending upon solubility). An equal volume of saline is added; if the drug comes out of solution an equal volume of polyethoxylated castor oil is added and then saline qs to a concentration such that the desired dose is delivered in 0.5 ml. The final concentration of DMA, ethanol and polyethoxylated castor oil is […]. Dilutions for lower doses are made with saline so there is a decreasing proportion of organic solvents in the vehicle with decreasing dosage. These vehicles provide soluble formulations (or suspensions). Fomulations are prepared immediately prior to injection. The compound is administered ip on Days 1 through 5 (i.e. treatment is initiated 24 hrs after tumor inoculation). Each experiment includes three groups of 6 animals as untreated controls and animals treated with a positive control, cisplatin, at two dose levels. Animals are weighed as a group on Days 1, 5 and 9 and average weight change (Δwt.) is used as a reflection of toxicity. Each experiment also includes an inoculum titration--groups of 8 mice inoculated ip with 10^5 to […] P388 leukemia cells. The titration is used to calculate cell kill achieved by treatment with drugs. Animals are monitored daily for mortality and experiments are terminated after 45 days. The endpoint is median survival time (MST) and increase in lifespan (ILS) which is the percentage of increase in MST relative to untreated controls. Untreated controls inoculated ip with 10^6 P388 leukemia cells generally survive for a median of 9 to 11 days. A drug is considered active if it produces ≥25 percent ILS.
(§2) ^(a) maximally tolerated dose for B6D2F female mice on an ipqDxs

Data set [2] has as its system B6D2F female mice. The description is as above. The format is in vivo, mouse. Conditions: maximally tolerated dose for B6D2F female mice, ipqDxs regimen (Days 1 through 5). On the procedure:
as §1, §2

Data set [3] has as its system M5076 reticulum cell sarcoma. The experiment in a line: intraperitoneally implanted M5076 reticulum cell sarcoma in mice. The conditions noted are these: maximum increase in lifespan, mice bearing ip M5076; ip daily for ten days; active if ≥25% ILS. It counts as in vivo, B6D2F female mice. The method, then: (§3) Another chemosensitive tumor model is intraperitoneally (ip) implanted M5076 reticulum cell sarcoma in mice. In this system B6D2F female mice are inoculated with 0.5 ml of a 10 percent (w:v) brei of M5076 prepared from pooled subcutaneous (sc) tumors excised at about 21 days from C57B1/6 donors. Drugs are administered ip. Daily treatment is begun 24 hours after implantation and is continued for ten days. The treatment regimen for M5076 is more prolonged than for P388 because of the slower growth rate and longer control survival time of the M5076 tumor. A drug is considered active in this tumor model if it produces ≥25% ILS.

A further data set has as its system B6D2F1 mice. The experiment in a line: maximally tolerated dose in mice, ip qD × 10, B16 (Table C). It counts as in vivo, mouse. The conditions noted are these: maximally tolerated dose for B6D2F1 mice. The method, then: (§4) In this system, groups of eight B6D2F1 mice are inoculated ip with 0.5 ml of a 10% (w:v) brei of B15 melanoma prepared from pooled sc tumors excised at 14-21 days from […] donor mice. Daily treatment is begun 24 hours after tumor implantation and is continued daily for ten (10) days. The route of drug administration is ip. The mice are monitored daily for survival for sixty (60) days. Antitumor activity is assessed by prolongation of median survival time. An ILS of ≥25% indicates activity in this tumor model.
^(b) maximally tolerated dose for B6D2F1 mice on an ip qD .times

Data set [4] has as its system B6D2F female mice. Description: maximally tolerated dose in mice, ip qD × 10, M5076 (Table B). The format is in vivo, mouse. Conditions: maximally tolerated dose for B6D2F female mice. The method, then: as §3
^(b) maximally tolerated dose for B6D2F female mice on an ip qD

In the next data set the test system is B16 melanoma. Description: in vivo ip B16 melanoma assay. Set-up: species or system B6D2F1 mice. Conditions: maximum increase in lifespan, mice bearing ip B16 melanoma; slash = separate experiments; ip daily for ten days; active if ≥25%. The method, then: as §4

Results on nine compounds are retold here after US4698422A, “Triphos and tetraphos gold compounds and ligands” (SmithKline Beckman Corporation, priority 1986, dated 1987).

Where “and” joins values, the source holds several entries; their conditions need not be identical. Equal entries are not always repeated.

Turning to `c1ccc(P(CCP(c2ccccc2)c2ccccc2)CCP(c2ccccc2)c2ccccc2)cc1` [Compound 6, bis(2-diphenylphosphinoethyl)phenylphosphine], in the data set with P388 leukemia, the “ILS (max)” value was 80% and 50%. Besides, the MTD (usually the largest dose that counted as tolerated) in data set [1] was determined as 32 mg/kg.

With “μ-[Bis(2-diphenylphosphinoethyl)phenylphosphine]tris(chlorogold) [Compound 1]”, the “ILS (max)” value with P388 leukemia is 30% and 40%. For the same compound, the MTD with B6D2F female mice [2] came to 8 mg/kg.

For `c1ccc(P(CCP(CCP(c2ccccc2)c2ccccc2)c2ccccc2)CCP(c2ccccc2)c2ccccc2)cc1` (stereo not drawn) [Compound 8, 1,1,4,7,10,10-hexaphenyl-1,4,7,10-tetraphosphodecane], the “ILS (max)” value in the data set with P388 leukemia is 25% and 40%. The compound also yielded an MTD in data set [1] of 64 mg/kg.

Take “μ-[1,1,4,7,10,10-Hexaphenyl-1,4,7,10-tetraphosphodecane]tetrakis(chlorogold) [Compound 3]”: in data set [3], the “ILS (MAX)” value turned out to be 96%. Moreover, the MTD is on record as 6 mg/kg in the data set with B6D2F1 mice, 12 mg/kg in the data set with B6D2F female mice [2] and 8 mg/kg in the data set on B6D2F female mice [4]. Besides, the ILS (in general, how much longer treated animals lived than controls) in the data set with B16 melanoma was 30% and 51%.

For “μ-[Tris(2-diphenylphosphinoethyl)phosphine]tetrakis(chlorogold) [Compound 2]”, in the data set on P388 leukemia, the “ILS (max)” value is recorded as 45%. Moreover, in the data set on B6D2F female mice [2], the MTD came out at 8 mg/kg.

Consider “μ-[1,1,4,7,10,10-Hexaphenyl-1,4,7,10-tetraphosphodecane]tetrakis(1-thio- β-D-glucopyranosato-S)gold [Compound 4]”, for which the “ILS (max)” value with P388 leukemia is 100% and 55%. For the same compound, in the data set with B6D2F female mice [2], the MTD is reported as 8 mg/kg.

With `c1ccc(P(CCP(CCP(c2ccccc2)c2ccccc2)CCP(c2ccccc2)c2ccccc2)c2ccccc2)cc1` [Compound 7, tris(diphenylphosphinoethyl)phosphine], in the data set with P388 leukemia, the “ILS (max)” value was 35% and 30%. The same compound returned an MTD in data set [1] of 64 mg/kg.

As to “μ-[1,1,1-Tris(diphenylphosphinomethyl)ethane]tris(chlorogold) [Compound 5]”, the “ILS (max)” value in the data set on P388 leukemia was 40% and 30%. This compound also returned an MTD with B6D2F female mice [2] of 20 mg/kg.

Turning to `CC(CP(c1ccccc1)c1ccccc1)(CP(c1ccccc1)c1ccccc1)CP(c1ccccc1)c1ccccc1` [Compound 9, μ-[1,1,1-Tris(diphenylphosphinomethyl)ethane]], in the data set with P388 leukemia, the “ILS (max)” value is 45% and 25%. Moreover, the MTD in data set [1] worked out at 128 mg/kg.
